Measured values: US8013008B2, “Cyclic amine compound” (Takeda Pharmaceutical Company Limited, priority 2006, dated 2011)

Assays:
AR = biological target: T1, AR (Homo sapiens, UniProt P10275); experiment: Reporter assay system using Cos7 cell (AR gene + MMTV androgen responsive promoter-luciferase); format: cell-based; conditions: 100 nM compound, 24 hr; Cos-7 co-transfected with AR and MMTV-luciferase vectors; luciferase activity induced by 1 μM 5α-dihydrotestosterone taken as 100
T1 construct: expressed in transfected cells; host or cells: Cos-7
T1 sequence (P10275 1-920): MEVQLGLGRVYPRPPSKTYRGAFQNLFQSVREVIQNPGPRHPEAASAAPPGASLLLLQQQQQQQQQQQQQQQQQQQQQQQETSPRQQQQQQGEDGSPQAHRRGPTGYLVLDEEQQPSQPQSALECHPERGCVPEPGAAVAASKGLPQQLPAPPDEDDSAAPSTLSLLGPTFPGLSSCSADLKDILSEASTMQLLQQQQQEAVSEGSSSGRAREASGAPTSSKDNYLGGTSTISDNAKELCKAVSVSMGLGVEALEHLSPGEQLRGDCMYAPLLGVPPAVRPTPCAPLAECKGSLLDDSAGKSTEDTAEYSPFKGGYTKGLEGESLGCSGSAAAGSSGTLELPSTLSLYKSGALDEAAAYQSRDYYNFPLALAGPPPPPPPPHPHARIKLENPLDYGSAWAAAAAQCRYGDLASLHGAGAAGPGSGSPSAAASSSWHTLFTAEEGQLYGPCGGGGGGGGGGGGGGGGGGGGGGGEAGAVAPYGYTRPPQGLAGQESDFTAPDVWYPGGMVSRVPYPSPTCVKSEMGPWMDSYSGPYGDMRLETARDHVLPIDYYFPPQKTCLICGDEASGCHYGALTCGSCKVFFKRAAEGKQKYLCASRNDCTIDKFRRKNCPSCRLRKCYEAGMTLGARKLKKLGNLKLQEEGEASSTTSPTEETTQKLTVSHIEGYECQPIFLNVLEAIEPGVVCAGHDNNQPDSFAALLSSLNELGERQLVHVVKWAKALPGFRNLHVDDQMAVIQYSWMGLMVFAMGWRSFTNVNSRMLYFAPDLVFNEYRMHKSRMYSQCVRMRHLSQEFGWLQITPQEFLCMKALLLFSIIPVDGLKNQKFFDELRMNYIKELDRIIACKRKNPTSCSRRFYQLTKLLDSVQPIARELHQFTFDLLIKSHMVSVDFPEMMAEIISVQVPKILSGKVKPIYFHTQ
Method: Cos-7(5,000,000 cells) were sown in a flask (150 cm^2), and cultured in a culture medium (DMEM medium containing 10% Dextran Charcoal (DCC)-Fetal Bovine Serum (FBS) and 2 mM glutamine) for 24 hr. A vector DNA containing AR gene, and a vector DNA prepared by binging luciferase gene at the downstream of an androgen responsive promoter derived from MMTV (Mouse Mammary Tumor Virus) were co-transfected by the liposome method. After culture for 4 hr, the cells were harvested, 10,000 cells were plated on a 96 well plate and cultured for 2 hr, after which 1 μM of 5α-dihydrotestosterone or 100 nM of a compound was added thereto. After culture for 24 hr, luciferase activity was determined. The induction rate by the compound was determined with the luciferase activity induced by addition of 1 μM of 5α-dihydrotestosterone as 100.

[1] = biological target: T2, wild-type androgen receptor (AR) (Homo sapiens, UniProt P10275); experiment: AR binding inhibitory test (wild-type); conditions: 100 nM compound; 3 nM radiolabeled mibolerone; 4° C., 3 hr; dextran/charcoal B/F separation; read-out: Inhibitory rate (%) at 100 nM
T2 sequence (P10275 1-920): T1 sequence (P10275 1-920)
Method: To a solution containing a wild-type androgen receptor (AR) was added 3 nM radiolabeled mibolerone and 100 nM compound. After the solution was incubated at 4° C. for 3 hr, B (Bound)/F (Free) separation was performed by the dextran/charcoal method. The label count of B was measured, and the inhibitory rate of the compound was calculated.

SMILES | Induction rate (%) at 100 nM (AR) [%] | inhibition at 0.1 µM [1] [%]
C[C@@H]1N(c2ccc(C#N)c(F)c2)CC[C@]1(C)O [Example 1, 2-fluoro-4-[(2S,3S)-3-hydroxy-2,3-dimethylpyrrolidin-1-yl]benzonitrile] | 65 | 95
CC[C@]1(O)CCN(c2cc(F)c(C#N)c(F)c2)[C@H]1C [Example 7, 4-[(2S,3S)-3-ethyl-3-hydroxy-2-methylpyrrolidin-1-yl]-2,6-difluorobenzonitrile] | 107 | 98
C[C@@H]1N(c2ccc(C#N)c(Cl)c2)CC[C@@]1(O)C(F)(F)F [Example 18, 2-chloro-4-[(2S,3S)-3-hydroxy-2-methyl-3-(trifluoromethyl)pyrrolidin-1-yl]benzonitrile] | 89 | 100
CC(C)[C@@H]1N(c2cc(F)c(C#N)c(F)c2)CC[C@]1(C)O [Example 20, 2,6-difluoro-4-[(2S,3S)-3-hydroxy-2-isopropyl-3-methylpyrrolidin-1-yl]benzonitrile] | 59 | 98
C[C@@H]1N(c2ccc(C#N)c(F)c2)CC[C@@]1(O)C1CC1 [Example 32, 4-[(2S,3R)-3-cyclopropyl-3-hydroxy-2-methylpyrrolidin-1-yl]-2-fluorobenzonitrile] | 77 | 98
C[C@@H]1C[C@](C)(O)[C@H](C)N1c1ccc(C#N)c(Cl)c1 [Example 60, 2-chloro-4-[(2S,3S,5R)-3-hydroxy-2,3,5-trimethylpyrrolidin-1-yl]benzonitrile] | 37 | 92
